Assay results from patent publication US10829730B2, “Microdevice platform recapitulating hypoxic tissue microenvironments” (UNIVERSITY OF SOUTHERN CALIFORNIA, priority 2017, dated 2020).
“Also recorded” adds a separate entry of the source.

What was measured:
[1] = test system: hypoxic human cancer cells; conditions: hypoxic vs normoxic human cancer cells; cited from earlier work
[2] = test system: MCF-7 human breast cancer cells; assay: Hypoxia-activated drug assay: live-dead staining (calcein-AM / propidium iodide) of micropatterned cells, normoxic or in hypoxia microdevice; assay type: cell-based; conditions: 50 μM TPZ; for live-cell fraction (areal fraction of positive calcein staining), inside versus outside the 1.5 mm radius: N=3, one-way ANOVA; for cytotoxicity indicated by positive nuclear propidium iodide (PI) staining: 24 hours after 12 hours pre-conditioning
Protocol: To assess the response of cancer cells to drug treatment under a hypoxic gradient, as well as the feasibility of the microdevice for drug screening assays, cell viability assays with TPZ treatment in the microdevice were performed. […] Cells were pre-conditioned with hypoxia in the microdevice for 12 hours, which was considered sufficient to induce cellular adaptations to hypoxia^47, before being treated with TPZ for 24 hours. […] As dead cells can be washed off in the staining process, the areal fraction of living cells with positive calcein staining was chosen as the readout for TPZ cytotoxicity. The live-cell fractions in the micropatterns inside and outside the 1.5 mm radius were quantified, which corresponds to the pillar radius.
MCF-7 human breast cancer cells were purchased from ATCC and maintained in […] (DMEM; Thermo Fisher) supplemented with 10% fetal bovine serum (FBS; Omega Scientific), 100 U mL^−1 penicillin, and 100 μg mL^−1 streptomycin (Thermo Fisher), in a humidified incubator maintained at 37° C. and 5% CO2. Round glass coverslips (12 mm in diameter; Fisher Scientific) were immersed in hot commercial detergent, rinsed with deionized water, and dried with air. The coverslips were then treated with plasma (Harrick Plasma, Model PDC-001-HP) and silanized with 1% aminopropyltriathoxysilane (Fisher Scientific) for 15 minutes. Upon extensive rinsing, coverslips were dried with air and cured at 100° C. for 1 hour. Next, silanized coverslips were coated with 0.1 mg mL^−1 rat tail collagen type I (Corning) in 4° C. for 3 hours under shaking conditions. Micropattern designs were modeled in CorelDrawX7 (Corel Corporation) and fabricated into 250 μm thick PDMS stencils (Rogers Corporation) by a laser engraver (Epilog). Stencil design was a circular feature of 5 mm diameter cut into a 13 mm circle. Stencils were then thoroughly rinsed in 70% isopropanol and deionized water, air-dried, and aligned onto the collagen-coated coverslips. The whole substrate was blocked with 0.2% w/v pluronic F-127 (Sigma) diluted in 1×PBS, rinsed with PBS, then with DMEM. Next, 300,000 MCF-7 human breast cancer cells (ATCC) were seeded. After cells adhered, PDMS stencils were peeled off and the glass coverslips with micropatterned cancer cells were briefly rinsed^41.
Micropatterned cells were pre-conditioned in normoxic conditions (no microdevice) or hypoxic conditions (microdevice) for 12 hours. Next, media was replaced with 50 μM TPZ (Sigma Aldrich), a hypoxia-activated anticancer prodrug, for 24 hours. Cells were rinsed with fresh media and stained for calcein-AM (Sigma Aldrich) and propidium iodide (PI) (Thermo Fisher Scientific) for 30 minutes at room temperature. Cell survival was quantified by the fraction of cells expressing positive calcein signal.
For the drug assay, the fraction of calcein positive cells (live cells) within (corresponding to hypoxia-induced cells under the pillar) and outside (corresponding to near-normoxic cells outside the pillar) the 1.5 mm radius was quantified. The fraction of PI positive cells (dead cells) was also quantified. The respective fractions were plotted against micropattern radii, similarly to previous image analyses. All data are plotted using Prism (GraphPad Software, Inc.).

Nc1n[n+]([O-])c2ccccc2[n+]1[O-] [TPZ, tirapazamine]
selectivity at targeting hypoxic human cancer cells versus their normoxic counterparts [1]: 15- to 50 fold
live-cell fraction (areal fraction of positive calcein staining), inside versus outside the 1.5 mm radius ([2]; hypoxia microdevice, 24 hours): significant reduction
cytotoxicity indicated by positive nuclear propidium iodide (PI) staining ([2]; hypoxic samples (microdevice), MCF-7): cytotoxicity caused by TPZ
fate of cells under severe hypoxia near the pillar center (live-dead staining) ([2]; microdevice, ≤0.03 mol/m^3 oxygen level by COMSOL simulation, 24 hours, MCF-7): eliminated; also recorded: death zone
live-cell fraction (areal fraction of positive calcein staining), inside versus outside the 1.5 mm radius ([2]; normoxic condition (no microdevice), 24 hours): not statistically different
cytotoxicity indicated by positive nuclear propidium iodide (PI) staining ([2]; normoxic samples (no microdevice), MCF-7): cytotoxicity caused by TPZ; also recorded: TPZ-induced cytotoxicity
